Patent US20240383915A1, “OXAZEPINE COMPOUNDS AND USES THEREOF IN THE TREATMENT OF CANCER” (Genentech, Inc., priority 2021, published 2024)

Columns and labels:
KRas(G12V) = KRas(G12V) (Homo sapiens (Human), UniProt P01116, G12V); assay: KRas(G12V) GDP HTRF (BODIPY-GDP exchange TR-FRET); format: biochemical
KRas = KRas (Homo sapiens (Human), UniProt P01116); assay: KRas GDP HTRF (BODIPY-GDP exchange TR-FRET); format: biochemical
Summary of the method: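 Inhibition of SOS1-mediated exchange of BODIPY-GDP on KRAS G12D, started with 3 nM recombinant human SOS1 and 300 nM BODIPY-GDP and read after 60 min. TR-FRET excitation 337 nm, ratio 520/490 nm ×10,000. IC50 from 4-parameter Hill fit of normalized data.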

SW480 cells = assay: SW480 proliferation assay; format: cell-based; settings: Homo sapiens, SW480, SW480; read-out: SW480 Prolif IC50 (G12V)
PC-9 cells = assay: PC9 proliferation assay; format: cell-based, human; settings: Homo sapiens, PC-9, PC9; read-out: PC9 Prolif IC50 (G12V)

KRas(G12V), sequence (P01116-2 other isoform, or with tags, fused parts or gaps G12V): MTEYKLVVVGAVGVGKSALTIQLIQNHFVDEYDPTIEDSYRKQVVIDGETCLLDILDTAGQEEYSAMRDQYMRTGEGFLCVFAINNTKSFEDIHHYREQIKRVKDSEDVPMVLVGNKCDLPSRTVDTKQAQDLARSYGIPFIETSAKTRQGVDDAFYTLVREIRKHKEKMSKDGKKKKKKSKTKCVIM
KRas, sequence (P01116-2 other isoform, or with tags, fused parts or gaps): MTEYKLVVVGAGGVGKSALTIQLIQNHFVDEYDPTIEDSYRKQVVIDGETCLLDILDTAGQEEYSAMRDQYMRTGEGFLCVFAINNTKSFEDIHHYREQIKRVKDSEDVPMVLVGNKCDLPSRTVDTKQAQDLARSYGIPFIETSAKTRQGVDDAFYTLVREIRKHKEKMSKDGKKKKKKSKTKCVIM

| SMILES | IC50 (KRas(G12V)) [nM] | IC50 (KRas) [nM] | IC50 (SW480 cells) [nM] | IC50 (PC-9 cells) [nM] |
| --- | --- | --- | --- | --- |
| Cc1cc(N)cc(-c2cc3nc(OC[C@@]45CCCN4C[C@H](F)C5)nc4c3c(c2Cl)OCCN4C)c1C(F)(F)F [Example 39, 3-(8-chloro-2-(((2R,7aS)-2-fluorotetrahydro-1H-pyrrolizin-7a(5H)-yl)methoxy)-4-methyl-5,6-dihydro-4H-[1, 4]oxazepino[5,6,7-de]quinazolin-9-yl)-5-methyl-4-(trifluoromethyl)aniline] | 24 | 140 | 20000 | 20000 |
| C=C1CN2CCC[C@@]2(COc2nc3c4c(c(Cl)c(-c5nc(N)cc(C)c5C(F)(F)F)c(F)c4n2)OCCN3C)C1 [Example 40] | 0.99 | 4.6 | 1200 | 2100 |
| C=C1CN2CCC[C@@]2(COc2nc3c4c(c(Cl)c(-c5nc(N)cc(C)c5C(F)(F)F)cc4n2)OCCN3C)C1 [Example 44, (S)-6-(8-chloro-4-methyl-2-((2-methylenetetrahydro-1H-pyrrolizin-7a(5H)-yl)methoxy)-5,6-dihydro-4H-[1,4]oxazepino[5,6,7-de]quinazolin-9-yl)-4-methyl-5-(trifluoromethyl)pyridin-2-amine] | 2.7 | 17 | 4100 | 4800 |
| Cc1cc(N)nc(-c2cc3nc(OC[C@@H]4C[C@@H](F)CN4C)nc4c3c(c2Cl)OCCN4Cc2cccnc2N)c1C(F)(F)F [Example 49, 6-(4-((2-aminopyridin-3-yl)methyl)-8-chloro-2-(((2S,4R)-4-fluoro-1-methylpyrrolidin-2-yl)methoxy)-5,6-dihydro-4H-[1,4]oxazepino[5,6,7-de]quinazolin-9-yl)-4-methyl-5-(trifluoromethyl)pyridin-2-amine] | 0.57 | 3.8 | 1100 | 3800 |
| Cc1cc(N)nc(-c2cc3ncnc4c3c(c2Cl)OCCN4CCn2ccccc2=O)c1C(F)(F)F [Example 51, 1-(2-(9-(6-amino-4-methyl-3-(trifluoromethyl)pyridin-2-yl)-8-chloro-5,6-dihydro-[1,4]oxazepino[5,6,7-de]quinazolin-4-yl)ethyl)pyridin-2(1H)-one] | 9500 | 12000 | 20000 | 20000 |
| C=C1CN2CCC[C@@]2(COc2nc3c4c(c(Cl)c(-c5cc(O)cc6ccccc56)cc4n2)OCCN3C)C1 [Example 59, (S)-4-(8-chloro-4-methyl-2-((2-methylenetetrahydro-1H-pyrrolizin-7a(5H)-yl)methoxy)-5,6-dihydro-4H-[1,4]oxazepino[5,6,7-de]quinazolin-9-yl)naphthalen-2-ol] | 57 | 270 | 7100 | 5800 |
| Nc1ncccc1CN1CCOc2c(Cl)c(-c3cc(O)cc4ccccc34)cc3nc(OC[C@@]45CCCN4C[C@H](F)C5)nc1c23 [Example 61, 4-(4-((2-aminopyridin-3-yl)methyl)-8-chloro-2-(((2R,7aS)-2-fluorotetrahydro-1H-pyrrolizin-7a(5H)-yl)methoxy)-5,6-dihydro-4H-[1,4]oxazepino[5,6,7-de]quinazolin-9-yl)naphthalen-2-ol] | 0.86 | 4.3 | 940 | 3100 |
| Nc1ncccc1CN1CCOc2c(Cl)c(-c3cccc4ccccc34)cc3nc(OC[C@@]45CCCN4C[C@H](F)C5)nc1c23 [Example 62, 3-((8-chloro-2-(((2R,7aS)-2-fluorotetrahydro-1H-pyrrolizin-7a(5H)-yl)methoxy)-9-(naphthalen-1-yl)-5,6-dihydro-4H-[1,4]oxazepino[5,6,7-de]quinazolin-4-yl)methyl)pyridin-2-amine] | 12 | 96 | 4900 | 3400 |
| Nc1ncccc1CN1CCOc2c(Cl)c(-c3cccc4c3CCC4)cc3nc(OC[C@@]45CCCN4C[C@H](F)C5)nc1c23 [Example 63, 3-((8-chloro-9-(2,3-dihydro-1H-inden-4-yl)-2-(((2R,7aS)-2-fluorotetrahydro-1H-pyrrolizin-7a(5H)-yl)methoxy)-5,6-dihydro-4H-[1,4]oxazepino[5,6,7-de]quinazolin-4-yl)methyl)pyridin-2-amine] | 8.7 | 69 | 3300 | 4000 |
| Nc1ncccc1CN1CCOc2c(Cl)c(-c3cccc(CO)c3)cc3nc(OC[C@@]45CCCN4C[C@H](F)C5)nc1c23 [Example 64, (3-(4-((2-aminopyridin-3-yl)methyl)-8-chloro-2-(((2R,7aS)-2-fluorotetrahydro-1H-pyrrolizin-7a(5H)-yl)methoxy)-5,6-dihydro-4H-[1,4]oxazepino[5,6,7-de]quinazolin-9-yl)phenyl)methanol] | 290 | 2700 | 17000 | 5400 |

These reach a lower IC50 (KRas(G12V)). Values come first.

| IC50 (KRas(G12V)) [nM] | IC50 (KRas) [nM] | IC50 (SW480 cells) [nM] | IC50 (PC-9 cells) [nM] | SMILES |
| --- | --- | --- | --- | --- |
| 0.42 | 0.48 | 230 | 2700 | Cc1cc(N)nc(-c2cc3nc(OC[C@@]45CCCN4C[C@H](F)C5)nc4c3c(c2Cl)OCCN4Cc2cccnc2N)c1C(F)(F)F [Example 60, 6-(4-((2-aminopyridin-3-yl)methyl)-8-chloro-2-(((2R,7aS)-2-fluorotetrahydro-1H-pyrrolizin-7a(5H)-yl)methoxy)-5,6-dihydro-4H-[1,4]oxazepino[5,6,7-de]quinazolin-9-yl)-4-methyl-5-(trifluoromethyl)pyridin-2-amine] |
| 0.06 | 0.19 | 33 | 730 | C=C1CN2CCC2(COc2nc3c4c(c(Cl)c(-c5nc(N)cc(C)c5C(F)(F)F)c(F)c4n2)OCCN3[C@H](C)c2cccnc2N)C1 (stereo partly drawn) [Example 118, (6R)-6-(4-((R)-1-(2-aminopyridin-3-yl)ethyl)-8-chloro-10-fluoro-2-((3-methylene-1-azabicyclo[3.2.0]heptan-5-yl)methoxy)-5,6-dihydro-4H-[1,4]oxazepino[5,6,7-de]quinazolin-9-yl)-4-methyl-5-(trifluoromethyl)pyridin-2-amine] |
| 0.05 | 0.14 | 16 | 3000 | C[C@H](c1cccnc1N)N1CCOc2c(Cl)c(-c3cc(O)cc4ccccc34)c(F)c3nc(OC[C@@]45CCCN4C[C@H](F)C5)nc1c23 [Example 119, 4-(4-((R)-1-(2-aminopyridin-3-yl)ethyl)-8-chloro-10-fluoro-2-(((2R,7aS)-2-fluorotetrahydro-1H-pyrrolizin-7a(5H)-yl)methoxy)-5,6-dihydro-4H-[1,4]oxazepino[5,6,7-de]quinazolin-9-yl)naphthalen-2-ol] |
| 0.08 | 0.21 | 590 | 1600 | Cc1cc(N)nc(-c2c(Cl)c3c4c(nc(OCC5CCN(C)C5)nc4c2F)N([C@H](C)c2cccnc2N)CCO3)c1C(F)(F)F (stereo partly drawn) [Example 134, 6-((9R)-4-((R)-1-(2-aminopyridin-3-yl)ethyl)-8-chloro-10-fluoro-2-((1-methylpyrrolidin-3-yl)methoxy)-5,6-dihydro-4H-[1,4]oxazepino[5,6,7-de]quinazolin-9-yl)-4-methyl-5-(trifluoromethyl)pyridin-2-amine] |
| 0.07 | 0.159 | 140 | 1100 | Cc1cc(N)nc(-c2c(Cl)c3c4c(nc(OCC5CCCN(C)C5)nc4c2F)N([C@H](C)c2cccnc2N)CCO3)c1C(F)(F)F (stereo partly drawn) [Example 137, 6-((9R)-4-((R)-1-(2-aminopyridin-3-yl)ethyl)-8-chloro-10-fluoro-2-((1-methylpiperidin-3-yl)methoxy)-5,6-dihydro-4H-[1,4]oxazepino[5,6,7-de]quinazolin-9-yl)-4-methyl-5-(trifluoromethyl)pyridin-2-amine] |
| 0.08 | 0.205 | 240 | 830 | Cc1cc(N)nc(-c2c(Cl)c3c4c(nc(OCCC5CCCN5C)nc4c2F)N([C@H](C)c2cccnc2N)CCO3)c1C(F)(F)F (stereo partly drawn) [Example 139, 6-((9R)-4-((R)-1-(2-aminopyridin-3-yl)ethyl)-8-chloro-10-fluoro-2-(2-(1-methylpyrrolidin-2-yl)ethoxy)-5,6-dihydro-4H-[1,4]oxazepino[5,6,7-de]quinazolin-9-yl)-4-methyl-5-(trifluoromethyl)pyridin-2-amine] |
| 0.17 | 0.6 | 51 | 3800 | Cc1cc(N)nc(-c2c(Cl)c3c4c(nc(OCC5COCCN5C)nc4c2F)N([C@H](C)c2cccnc2N)CCO3)c1C(F)(F)F (stereo partly drawn) [Example 140, 6-((9R)-4-((R)-1-(2-aminopyridin-3-yl)ethyl)-8-chloro-10-fluoro-2-((4-methylmorpholin-3-yl)methoxy)-5,6-dihydro-4H-[1,4]oxazepino[5,6,7-de]quinazolin-9-yl)-4-methyl-5-(trifluoromethyl)pyridin-2-amine] |
| 0.24 | 0.77 | 76 | 8100 | Cc1cc(N)nc(-c2c(Cl)c3c4c(nc(OCC56COC(C5)C6)nc4c2F)N([C@H](C)c2cccnc2N)CCO3)c1C(F)(F)F [Example 141, 6-((R)-2-((2-oxabicyclo[2.1.1]hexan-4-yl)methoxy)-4-((R)-1-(2-aminopyridin-3-yl)ethyl)-8-chloro-10-fluoro-5,6-dihydro-4H-[1,4]oxazepino[5,6,7-de]quinazolin-9-yl)-4-methyl-5-(trifluoromethyl)pyridin-2-amine] |
